Where a name gives a salt, the structure may show the parent alone.
How the values were obtained:
[1] = system: HCT-116 colorectal carcinoma xenograft; assay: In vivo efficacy in mouse HCT-116 colorectal carcinoma xenograft model
Method: The in vivo efficacy and toxicity of D3 was evaluated in a mouse HCT-116 colorectal carcinoma xenograft model.
Female athymic BALB/c nude mice (ARC, West Australia), 18-20 weeks of age, are fed with sterilized tap water (ad libitum water) and irradiated standard rodent diet consisting of: 19% protein, 5% fat, and 5% fiber. Mice are housed in individual ventilated cages on 12-hour light cycle at 21-22° C. and 40-60% humidity. Biological Resource Centre, Biopolis (BRC) complies with the recommendations of the guide for care and use of Laboratory Animals with respect to restraint, husbandry, surgical procedures, feed and fluid regulation, and veterinary care. The animal cares and use program (#070276) at BRC was Institutional Animal Care and Use Committee (IACUC) accredited.
D3 was provided in powder form, dissolved in 10% DMSO in sterile 1×PBS and stored in −20° C. Every mouse will receive a dose of 30-60 mg per kilogram body weight by intraperitoneal injection (ip).
Mice were implanted subcutaneously in the left flank with 5×10^6 cells of HCT-116 parental human colon carcinoma. The tumors were allowed to grow for 8 days and thereafter monitored every 2-3 days by caliper.
On the day 1, nude mice were divided into 2 groups according to tumor volume to ensure tumor volume evenly distributed into each group. Each group comprised 7 animals. Drug treatment was initiated on day 1. D3 is administered ip at doses of 30 mg/kg for 7 days followed by 60 mg/kg for another 5 days on once-a-day basis. Another group of mice received receive only vehicle by ip route. […] The study was terminated on Day 14.
Estimated tumor volume was calculated using the formula:
Tumor volume (mm^3)=(w^2×l)/2
where w=width and l=length in mm of an HCT-116 carcinoma.
Compound efficacy was assessed by the tumor growth inhibition (TGI) method in which tumor volume of treatment groups are compared to the vehicle controls. The percent tumor growth inhibition (% TGI) is calculated as follows:
% TGI=[…]×100
where: • Cday 1=median tumor volume for the control group (vehicle) on day 1 • Cday a=median tumor volume for the control group (vehicle) on day a • Tday a=median tumor volume for a treatment group on day a Animals classified as NTRD (non-treatment-related deaths) were excluded from TGI calculations.
The two sample t-test was used to determine the statistical significance of body weight changes and tumor volumes between groups. Statistical analyses were conducted at a p level of 0.05. SPSS was used for all statistical analyses and graphic presentations.

[2] = Maximum tolerated dose in vivo; settings: compared to DZNep
HCT115 ER-E2F1 cells = assay: E2F1-induced apoptosis assay (ER-E2F1 activated by 4-OHT), FACS subG1; assay type: cell-based
Source text: Two assays were used to measure the compound's activity in induce apoptosis. The first assay measures the activity of compound to activate E2F1-induced apoptosis. In this assay, transcription factor E2F1 was engineered with ER receptor ligand binding domain. Addition of 4-OHT will be able to activate ER-E2F1 complex activity.
Fluorescence activated cell sorting (FACS) also known as flow cytometry is the technique used to determine apoptosis in this set of experiments. Apoptosis is indicated by cell populations with DNA content in the subG1 range. To determine the activity of these compounds, the inventors used HCT115 ER-E2F1 cells to determine the activity of the compound in inducing E2F1-dependent apoptosis. In this assay, addition of 4-OHT ligand will activate E2F1. DZNep has been show previously to activate OHT-induced apoptosis in this system.

| Structure (SMILES) | tumor volume versus vehicle group ([1]; D3 ip 30 mg/kg 7 days then 60 mg/kg 5 days, p=0.033) | tumor growth inhibition ([1]; D3 ip 30 then 60 mg/kg, day 7) | tumor growth inhibition ([1]; D3 ip 30 then 60 mg/kg, day 9) [%] | tumor growth inhibition ([1]; D3 ip 30 then 60 mg/kg, day 12) [%] | tumor growth inhibition ([1]; D3 ip 30 then 60 mg/kg, end point day 14) [%] | maximum tolerated dose (MTD) [2] | ability to cause apoptosis in the induction of E2F1-dependent apoptosis (HCT115 ER-E2F1 cells; compared with DZNep) | E2F1 Induced apoptosis (+4-OHT) % Apoptosis (HCT115 ER-E2F1 cells; with 4-OHT (value in parentheses)) [%] | tumor growth inhibition ([1]; I3 30 mg/kg, day 6) | tumor growth inhibition ([1]; I3 30 mg/kg, day 8) [%] | tumor growth inhibition ([1]; I3 30 mg/kg, day 10) [%] | tumor growth inhibition ([1]; I3 30 mg/kg, day 13) [%] | tumor growth inhibition ([1]; I3 30 mg/kg, end point day 14) [%] | tumor volume versus vehicle group ([1]; I3 30 mg/kg, p=0.037) | tumor volume versus vehicle group ([1]; I3 60 mg/kg, p=0.000) | tumor growth inhibition ([1]; I3 60-80 mg/kg, day 6) | tumor growth inhibition ([1]; I3 60-80 mg/kg, day 8) [%] | tumor growth inhibition ([1]; I3 60-80 mg/kg, day 10) [%] | tumor growth inhibition ([1]; I3 60-80 mg/kg, day 13) [%] | tumor growth inhibition ([1]; I3 60-80 mg/kg, end point day 14) [%] |
| --- | --- | --- | --- | --- | --- | --- | --- | --- | --- | --- | --- | --- | --- | --- | --- | --- | --- | --- | --- | --- |
| COCC1=C[C@@H](n2cnc3c(N)ncnc32)[C@H](O)[C@@H]1O [Compound 25, (1S,2R,5R)-5-(6-amino-9H-purin-9-yl)-3-(methoxymethyl)cyclopent-3-ene-1,2-diol hydrochloride] | statistically significantly smaller | about 49% | ~56 | ~54 | ~54 | higher | as effectively as DZNep | 60 | – | – | – | – | – | – | – | – | – | – | – | – |
| Nc1ncnc2c1ncn2[C@@H]1CC[C@@H](O)[C@H]1O [Compound I3, (1R,2S,3R)-3-(6-amino-9H-purin-9-yl)cyclopentane-1,2-diol] | – | – | – | – | – | – | – | – | about 40% | ~43 | ~31 | ~35 | ~34 | statistically significantly smaller | statistically significantly smaller | about 50% | ~65 | ~60 | ~68 | ~63 |
